# Measured values published in patent US4378366A, “2-[Trifluoroethylamine]oxazolines” (Science Union et Cie, priority 1978, dated 1983).
# Assay: solubility in dilute aqueous hydrochloric acid
# Type: physicochemical
# Conditions: dilute or N/10 aqueous hydrochloric acid; hydrochloride formed
row,SMILES,solubility in hydrochloric acid solution
1,"FC(F)(F)C(NC1=NCCO1)C1CCCCC1 (single isomer, unassigned) [IV, 2-[(1-trifluoromethyl 1-cyclohexyl)methylamino]oxazoline (dextrorotatory isomer)]",soluble in dilute hydrochloric acid
2,"FC(F)(F)C(NC1=NCCCN1)C1CCCCC1 (single isomer, unassigned) [XI, 2-[(1-trifluoromethyl 1-cyclohexyl)methylamino]tetrahydropyrimidine (laevorotatory isomer)]",soluble in N/10 hydrochloric acid solutions
3,"FC(F)(F)C(F)(F)C(NC1=NCCO1)C1CCCCC1 (racemic) [X, dl 2-[(1-pentafluoroethyl 1-cyclohexyl)methylamino]oxazoline]",soluble in N/10 hydrochloric acid solutions
4,"CC(C)CC(NC1=NCCO1)C(F)(F)F (racemic) [III, dl 2-(1-trifluoromethyl 3-methylbutylamino)oxazoline]",soluble in dilute hydrochloric acid
5,"FC(F)(F)C(NC1=NCCO1)C1CC1 (racemic) [II, dl 2-[(1-trifluoromethyl 1-cyclopropyl)methylamino]oxazoline]",easily soluble in an aqueous solution of the just calculated amount of N/10 hydrochloric acid
6,"CC(NC1=NCCO1)C(F)(F)F (racemic) [I, dl 2-(α-trifluoromethylethylamino)oxazoline]",soluble in the dilute aqueous solutions of hydrochloric acid
